Experimental data taken from the supplement of paper PMC8967900.

Tests used:
Experiment in all cases: selective drug sensitivity score (sDSS, relative to normal bone marrow) (sDSS (score)); higher = more potent and effective on the cell line relative to normal bone marrow cells
Conditions in all cases: 72 h
[1] = test system: TMD5
[2] = test system: CCRF-CEM
[3] = test system: COG-LL-332h
[4] = test system: ALL-SIL
[5] = test system: KASUMI-9
[6] = test system: P30-OHKUBO
[7] = test system: COG-LL-402h
[8] = test system: NALM-6
[9] = test system: CCRF-HSB2
[10] = test system: P12-ICHIKAWA
[11] = test system: JURKAT
[12] = test system: TANOUE
[13] = test system: COG-LL-355h
[14] = test system: RPMI-8402
[15] = test system: PEER
[16] = test system: COG-LL-394h
[17] = test system: COG-LL-317
[18] = test system: LC4-1
[19] = test system: KARPAS-45
[20] = test system: PF-382
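Further: ALL cell lines in 384-well plates, five doses spanning 10,000-fold, each plate scaled between vehicle and 100 µmol/L benzalkonium chloride controls, sDSS an adapted area-under-curve metric.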

Row | SMILES | selective drug sensitivity score [1] | selective drug sensitivity score [2] | selective drug sensitivity score [3] | selective drug sensitivity score [4] | selective drug sensitivity score [5] | selective drug sensitivity score [6] | selective drug sensitivity score [7] | selective drug sensitivity score [8] | selective drug sensitivity score [9] | selective drug sensitivity score [10] | selective drug sensitivity score [11] | selective drug sensitivity score [12] | selective drug sensitivity score [13] | selective drug sensitivity score [14] | selective drug sensitivity score [15] | selective drug sensitivity score [16] | selective drug sensitivity score [17] | selective drug sensitivity score [18] | selective drug sensitivity score [19] | selective drug sensitivity score [20]
1 | O=C(O)CC[C@H]1CC[C@@](c2cc(F)ccc2F)(S(=O)(=O)c2ccc(Cl)cc2)CC1 [MK-0752] (top concentration 1000 nM) | 0 | 0 | 0 | 0 | 0 | 2.5 | 0 | 0 | 1 | 0 | 0 | 0 | 0 | 3.2 | 0 | 0 | 0 | 0 | 0 | 0
2 | CNC(=O)[C@@H](NC(=O)[C@H](CC(C)C)[C@H](O)C(=O)NO)C(C)(C)C [Marimastat] (top concentration 10000 nM) | 3.72 | -0.48 | -0.18 | -1.28 | -1.28 | -0.18 | -0.38 | -1.28 | -0.78 | 1.22 | 2.42 | -1.28 | -1.28 | -0.68 | 1.42 | -0.88 | -1.28 | -1.28 | 3.32 | -0.68
3 | Clc1ccc(C(c2ccccc2Cl)C(Cl)Cl)cc1 (stereo not given) [Mitotane] (top concentration 10000 nM) | -0.08 | -0.08 | 0.92 | -0.08 | -0.08 | -0.08 | -0.08 | -0.08 | -0.08 | -0.08 | -0.08 | -0.08 | 0.02 | -0.08 | -0.08 | -0.08 | -0.08 | -0.08 | 0.02 | 0.12
4 | CCS(=O)(=O)Nc1ccc(Oc2ccc(F)cc2F)c(-c2cn(C)c(=O)c3[nH]ccc23)c1 [Mivebresib] (top concentration 10000 nM) | -5.7 | 1.5 | -3.9 | 1.7 | 17.4 | 15.3 | 12.7 | 6 | 1.3 | 9.9 | 3.55e-15 | -12 | 6 | 4.6 | 1.1 | 1.6 | 11.5 | 8.9 | 14 | 8
5 | CN1C(=O)N[C@H](Cc2c[nH]c3c(Cl)cccc23)C1=O [Necrostatin_2] (top concentration 10000 nM) | -0.08 | -0.08 | -0.08 | -0.08 | -0.08 | -0.08 | -0.08 | -0.08 | -0.08 | -0.08 | -0.08 | -0.08 | -0.08 | -0.08 | -0.08 | -0.08 | -0.08 | -0.08 | -0.08 | -0.08
6 | O=c1ncn2nc(Sc3ccc(F)cc3F)ccc2c1-c1c(Cl)cccc1Cl [Neflamapimod] (top concentration 10000 nM) | 0 | 0 | 0.3 | 1.3 | 3.1 | 2.2 | 0.1 | 0.6 | 0.5 | 1 | 1.7 | 1.4 | 2.2 | 2.1 | 2.3 | 1.3 | 1.7 | 0.9 | 0.1 | 0.5
7 | CC(O)c1cc(C(=O)N[C@@H](C)Cn2ccc(-c3ccc(C#N)c(Cl)c3)n2)n[nH]1 (stereo not given in full) [ODM-201] (top concentration 2500 nM) | -0.28 | 1.52 | 1.52 | 4.72 | -0.18 | 0.22 | 4.62 | 1.22 | 1.62 | 0.22 | 0.72 | 2.32 | 2.52 | 0.12 | 1.02 | -0.28 | 1.22 | 1.62 | 2.32 | 0.52
8 | C=CC(=O)Nc1cccc(Oc2nc(Nc3ccc(N4CCN(C)CC4)cc3)nc3ccsc23)c1 [Olmutinib] (top concentration 1000 nM) | -0.02 | -0.02 | -0.02 | -0.02 | 1.68 | 1.38 | 1.28 | -0.02 | -0.02 | -0.02 | -0.02 | -0.02 | 1.78 | -0.02 | -0.02 | -0.02 | 0.48 | -0.02 | 0.28 | -0.02
